Test results reported in patent publication US6248754A, “Substituted isoquinoline derivatives and their use as anticonvulsants” (SmithKline Beecham, p.l.c., priority 1997, dated 2001).

Columns and labels:
[1] = molecular target: novel receptor obtainable from rat forebrain tissue; experiment: Radioligand binding assay, displacement of [3H]-Compound A; conditions: competition with 20 nM [3H]-Compound A, room temperature 1 hour
Procedure: The affinity of test compounds to the novel receptor site is assessed as follows. Whole forebrain tissue is obtained from rats. The tissue is first homogenised in buffer (usually 50 mM Tris/HCl, pH 7.4). The homogenised tissue is washed by centrifugation and resuspension in the same buffer, then stored at -70° C. until used. To carry out the radioligand binding assay, aliquots of tissue prepared as above (usually at a concentration of 1-2 mg protein/ml) are mixed with aliquots of [3H]-Compound A dissolved in buffer. The final concentration of [3H]-Compound A in the mixture is usually 20 nM. The mixture is incubated at room temperature for 1 hour. [3H]-Compound A bound to the tissue is then separated from unbound [3H]-Compound A by filtration through Whatman GF/B glass fibre filters. The filters are then washed rapidly with ice-cold buffer. The amount of radioactivity bound to the tissue trapped on the filters is measured by addition of liquid scintillation cocktail to the filters followed by counting in a liquid scintillation counter. In order to determine the amount of "specific" binding of [3H]-Compound A, parallel assays are carried out as above in which [3H]-Compound A and tissue are incubated together in the presence of unlabelled Compound A (usually 3 μM). The amount of binding of [3H]-Compound A remaining in the presence of this unlabelled compound is defined as "non-specific" binding. This amount is subtracted from the total amount of [3H]-Compound A binding (i.e. that present in the absence of unlabelled compound) to obtain the amount of "specific" binding of [3H]-Compound A to the novel site. The affinity of the binding of test compounds to the novel site can be estimated by incubating together [3H]-Compound A and tissue in the presence of a range of concentrations of the compound to be tested. The decrease in the level of specific [3H]-Compound A binding as a result of competition by increasing concentrations of the compound under test is plotted graphically, and non-linear regression analysis of the resultant curve is used to provide an estimate of compound affinity in terms of pKi value.

[2] = tested on: maximal (tonic hindlimb extension) electroshock seizures in male rats; experiment: Maximal electroshock seizure (MEST) threshold test, rat model; format: in vivo; conditions: 2 mg/kg p.o. at 2 h, suspended in 1% methyl cellulose, statistically significant
Procedure: The maximal electroshock seizure (MEST) threshold test in rodents is particularly sensitive for detecting potential anticonvulsant properties^1. In this model, anticonvulsant agents elevate the threshold to electrically-induced seizures whilst proconvulsants lower the seizure threshold.
The threshold for maximal (tonic hindlimb extension) electroshock seizures in male rats (Sprague Dawley, 80-150 g, 6 weeks old) was determined by a Hugo Sachs Electronik stimulator which delivered a constant current (0.3 sec duration; from 1-300 mA in steps of 5-20 mA). The procedure is similar to that outlined above for mouse and full details are as published by Upton et al,.^4
The percentage increase or decrease in CC50 for each group compared to the control is calculated.
Drugs are suspended in 1% methyl cellulose.

SMILES | pKi [1] | increase in CC50 compared to control [2] [%]
COc1ccc(C(=O)Nc2ccc3c(c2Cl)CNCC3)cc1C(F)(F)F [Example 5] | greater than 7 | 320
COc1ccc(C(=O)Nc2ccc3c(c2C=Cc2ccccc2)CN(C)CC3)cc1C(F)(F)F.Cl [Example 19, N-(8-Styryl-2-methyl-1,2,3,4-tetrahydroisoquinolin-7-yl)-4-methoxy-3-trifluoromethylbenzamide hydrochloride] | greater than 7 | –
COc1ccc(C(=O)Nc2ccc3c(c2Br)CNCC3)cc1C(F)(F)F [Example 8, N-(8-Bromo-1,2,3,4-tetrahydroisoquinolin-7-yl)-4-methoxy-3-trifluoromethylbenzamide] | – | 400
COc1ccc(C(=O)Nc2ccc3c(c2Br)CN(C)CC3)cc1C(F)(F)F [Example 9, N-(8-Bromo-2-methyl-1,2,3,4-tetrahydroisoquinolin-7-yl)-4-methoxy-3-trifluoromethylbenzamide] | – | 340
COc1ccc(C(=O)Nc2ccc3c(c2Cl)CN(C)CC3)cc1C(F)(F)F [Example 6, N-(8-Chloro-2-methyl-1,2,3,4-tetrahydroisoquinolin-7-yl)-4-methoxy-3-trifluoromethylbenzamide] | – | 260
CCc1c(NC(=O)c2ccc(OC)c(C(F)(F)F)c2)ccc2c1CNCC2 [Example 14, N-(8-Ethyl-1,2,3,4-tetrahydroisoquinolin-7-yl)-4-methoxy-3-trifluoromethylbenzamide] | greater than 7 | –

Further lines, with some results ahead:

pKi [1] | SMILES | increase in CC50 compared to control [2] [%]
greater than 7 | CCc1c(NC(=O)c2ccc(OC)c(C(F)(F)F)c2)ccc2c1CN(C)CC2 [Example 15, N-(8-Ethyl-2-methyl-1,2,3,4-tetrahydroisoquinolin-7-yl)-4-methoxy-3-trifluoromethylbenzamide] | –
greater than 7 | CCOc1ccc(C(=O)Nc2ccc3c(c2Cl)CNCC3)cc1Br [Example 2, N-(8-Chloro-1,2,3,4-tetrahydroisoquinolin-7-yl)-3-bromo-4-ethoxybenzamide] | 120
greater than 7 | COc1ccc(C(=O)Nc2ccc3c(c2C=Cc2ccccc2)CNCC3)cc1C(F)(F)F [Example 18, N-(8-Styryl-1,2,3,4-tetrahydroisoquinolin-7-yl)-4-methoxy-3-trifluoromethylbenzamide] | –
greater than 7 | CCOc1ccc(C(=O)Nc2ccc3c(c2Cl)CN(C)CC3)cc1Br [Example 3, N-(8-chloro-2-methyl-1,2,3,4-tetrahydroisoquinolin-7-yl)-3-bromo-4-ethoxybenzamide] | 160
